ChEMBL document CHEMBL1806489, “Synthesis and biological evaluation of novel F-18 labeled pyrazolo[1,5-a]pyrimidine derivatives: potential PET imaging agents for tumor detection” (Bioorg Med Chem Lett, 2011)

Assays:
[1] = system: Heart; assay: Biodistribution in mouse S180 cells xenografted Kunming mouse heart at 370 kBq/0.1 mL, iv after 120 mins by gamma counting; type: ADME, organism-based, CCRF S-180; conditions: in vivo, 2 h
[2] = system: Nucleic Acid; assay: Ratio of drug level in tumor to muscle in mouse S180 cells xenografted Kunming mouse at 370 kBq/0.1 mL, iv after 30 mins by gamma counting; type: ADME, organism-based, CCRF S-180; conditions: in vivo, 0.5 h
[3] = system: Blood; assay: Biodistribution in mouse S180 cells xenografted Kunming mouse blood at 370 kBq/0.1 mL, iv after 120 mins by gamma counting; type: ADME, organism-based, CCRF S-180; conditions: in vivo, 2 h
[4] = system: Lung; assay: Biodistribution in mouse S180 cells xenografted Kunming mouse lung at 370 kBq/0.1 mL, iv after 60 mins by gamma counting; type: ADME, organism-based, CCRF S-180; conditions: in vivo, 1 h
[5] = system: Mus musculus; assay: Biodistribution in mouse S180 cells xenografted Kunming mouse tumor at 370 kBq/0.1 mL, iv after 60 mins by gamma counting; type: ADME, organism-based, Neoplasm, CCRF S-180; conditions: in vivo, 1 h
[6] = system: Blood; assay: Biodistribution in mouse S180 cells xenografted Kunming mouse blood at 370 kBq/0.1 mL, iv after 5 mins by gamma counting; type: ADME, organism-based, CCRF S-180; conditions: in vivo
[7] = system: Spleen; assay: Biodistribution in mouse S180 cells xenografted Kunming mouse spleen at 370 kBq/0.1 mL, iv after 15 mins by gamma counting; type: ADME, organism-based, CCRF S-180; conditions: in vivo, 0.25 h
[8] = system: Spleen; assay: Biodistribution in mouse S180 cells xenografted Kunming mouse spleen at 370 kBq/0.1 mL, iv after 5 mins by gamma counting; type: ADME, organism-based, CCRF S-180; conditions: in vivo
[9] = system: Nucleic Acid; assay: Ratio of drug level in tumor to muscle in mouse S180 cells xenografted Kunming mouse at 370 kBq/0.1 mL, iv after 5 mins by gamma counting; type: ADME, organism-based, CCRF S-180; conditions: in vivo
[10] = system: Brain; assay: Biodistribution in mouse S180 cells xenografted Kunming mouse brain at 370 kBq/0.1 mL, iv after 5 mins by gamma counting; type: ADME, organism-based, CCRF S-180; conditions: in vivo
[11] = system: Nucleic Acid; assay: Ratio of drug level in tumor to brain in mouse S180 cells xenografted Kunming mouse at 370 kBq/0.1 mL, iv after 5 mins by gamma counting; type: ADME, organism-based, CCRF S-180; conditions: in vivo
[12] = Partition coefficient, log P of the compound; type: physicochemical; conditions: octanol/water
[13] = system: Lung; assay: Biodistribution in mouse S180 cells xenografted Kunming mouse lung at 370 kBq/0.1 mL, iv after 15 mins by gamma counting; type: ADME, organism-based, CCRF S-180; conditions: in vivo, 0.25 h
[14] = system: Liver; assay: Biodistribution in mouse S180 cells xenografted Kunming mouse liver at 370 kBq/0.1 mL, iv after 30 mins by gamma counting; type: ADME, organism-based, CCRF S-180; conditions: in vivo, 0.5 h
[15] = system: Muscle tissue; assay: Biodistribution in mouse S180 cells xenografted Kunming mouse muscle at 370 kBq/0.1 mL, iv after 60 mins by gamma counting; type: ADME, organism-based, CCRF S-180; conditions: in vivo, 1 h
[16] = system: Mus musculus; assay: Biodistribution in mouse S180 cells xenografted Kunming mouse tumor at 370 kBq/0.1 mL, iv after 15 mins by gamma counting; type: ADME, organism-based, Neoplasm, CCRF S-180; conditions: in vivo, 0.25 h
[17] = system: Nucleic Acid; assay: Ratio of drug level in tumor to blood in mouse S180 cells xenografted Kunming mouse at 370 kBq/0.1 mL, iv after 60 mins by gamma counting; type: ADME, organism-based, CCRF S-180; conditions: tumour, 1 h
[18] = system: Heart; assay: Biodistribution in mouse S180 cells xenografted Kunming mouse heart at 370 kBq/0.1 mL, iv after 5 mins by gamma counting; type: ADME, organism-based, CCRF S-180; conditions: in vivo
[19] = system: Brain; assay: Biodistribution in mouse S180 cells xenografted Kunming mouse brain at 370 kBq/0.1 mL, iv after 30 mins by gamma counting; type: ADME, organism-based, CCRF S-180; conditions: in vivo, 0.5 h
[20] = system: Spleen; assay: Biodistribution in mouse S180 cells xenografted Kunming mouse spleen at 370 kBq/0.1 mL, iv after 30 mins by gamma counting; type: ADME, organism-based, CCRF S-180; conditions: in vivo, 0.5 h
[21] = system: Nucleic Acid; assay: Ratio of drug level in tumor to brain in mouse S180 cells xenografted Kunming mouse at 370 kBq/0.1 mL, iv after 120 mins by gamma counting; type: ADME, organism-based, CCRF S-180; conditions: in vivo, 2 h
[22] = system: Muscle tissue; assay: Biodistribution in mouse S180 cells xenografted Kunming mouse muscle at 370 kBq/0.1 mL, iv after 15 mins by gamma counting; type: ADME, organism-based, CCRF S-180; conditions: in vivo, 0.25 h
[23] = system: Nucleic Acid; assay: Ratio of drug level in tumor to blood in mouse S180 cells xenografted Kunming mouse at 370 kBq/0.1 mL, iv after 120 mins by gamma counting; type: ADME, organism-based, CCRF S-180; conditions: tumour, 2 h
[24] = system: Lung; assay: Biodistribution in mouse S180 cells xenografted Kunming mouse lung at 370 kBq/0.1 mL, iv after 120 mins by gamma counting; type: ADME, organism-based, CCRF S-180; conditions: in vivo, 2 h
[25] = system: Liver; assay: Biodistribution in mouse S180 cells xenografted Kunming mouse liver at 370 kBq/0.1 mL, iv after 15 mins by gamma counting; type: ADME, organism-based, CCRF S-180; conditions: in vivo, 0.25 h
[26] = system: Blood; assay: Biodistribution in mouse S180 cells xenografted Kunming mouse blood at 370 kBq/0.1 mL, iv after 30 mins by gamma counting; type: ADME, organism-based, CCRF S-180; conditions: in vivo, 0.5 h
[27] = system: Liver; assay: Biodistribution in mouse S180 cells xenografted Kunming mouse liver at 370 kBq/0.1 mL, iv after 60 mins by gamma counting; type: ADME, organism-based, CCRF S-180; conditions: in vivo, 1 h
[28] = system: Spleen; assay: Biodistribution in mouse S180 cells xenografted Kunming mouse spleen at 370 kBq/0.1 mL, iv after 60 mins by gamma counting; type: ADME, organism-based, CCRF S-180; conditions: in vivo, 1 h
[29] = system: Mus musculus; assay: Biodistribution in mouse S180 cells xenografted Kunming mouse tumor at 370 kBq/0.1 mL, iv after 5 mins by gamma counting; type: ADME, organism-based, Neoplasm, CCRF S-180; conditions: in vivo
[30] = system: Nucleic Acid; assay: Ratio of drug level in tumor to muscle in mouse S180 cells xenografted Kunming mouse at 370 kBq/0.1 mL, iv after 120 mins by gamma counting; type: ADME, organism-based, CCRF S-180; conditions: in vivo, 2 h
[31] = system: Muscle tissue; assay: Biodistribution in mouse S180 cells xenografted Kunming mouse muscle at 370 kBq/0.1 mL, iv after 120 mins by gamma counting; type: ADME, organism-based, CCRF S-180; conditions: in vivo, 2 h
[32] = system: CCRF S-180; assay: Cellular uptake in mouse S180 cells relative to [18F]FDG; type: ADME, cell-based
[33] = system: Plasma; assay: Metabolic stability in mouse plasma at 3.7 MBq after 1 to 2 hrs; type: ADME, cell-free
[34] = system: Kidney; assay: Biodistribution in mouse S180 cells xenografted Kunming mouse kidney at 370 kBq/0.1 mL, iv after 120 mins by gamma counting; type: ADME, organism-based, CCRF S-180; conditions: in vivo, 2 h
[35] = system: Mus musculus; assay: Biodistribution in mouse S180 cells xenografted Kunming mouse tumor at 370 kBq/0.1 mL, iv after 30 mins by gamma counting; type: ADME, organism-based, Neoplasm, CCRF S-180; conditions: in vivo, 0.5 h
[36] = system: Nucleic Acid; assay: Ratio of drug level in tumor to brain in mouse S180 cells xenografted Kunming mouse at 370 kBq/0.1 mL, iv after 15 mins by gamma counting; type: ADME, organism-based, CCRF S-180; conditions: in vivo, 0.25 h
[37] = system: Kidney; assay: Biodistribution in mouse S180 cells xenografted Kunming mouse kidney at 370 kBq/0.1 mL, iv after 15 mins by gamma counting; type: ADME, organism-based, CCRF S-180; conditions: in vivo, 0.25 h
[38] = system: Heart; assay: Biodistribution in mouse S180 cells xenografted Kunming mouse heart at 370 kBq/0.1 mL, iv after 60 mins by gamma counting; type: ADME, organism-based, CCRF S-180; conditions: in vivo, 1 h
[39] = system: Nucleic Acid; assay: Ratio of drug level in tumor to blood in mouse S180 cells xenografted Kunming mouse at 370 kBq/0.1 mL, iv after 5 mins by gamma counting; type: ADME, organism-based, CCRF S-180; conditions: tumour
[40] = system: Liver; assay: Biodistribution in mouse S180 cells xenografted Kunming mouse liver at 370 kBq/0.1 mL, iv after 120 mins by gamma counting; type: ADME, organism-based, CCRF S-180; conditions: in vivo, 2 h
[41] = system: Mus musculus; assay: Biodistribution in mouse S180 cells xenografted Kunming mouse tumor at 370 kBq/0.1 mL, iv after 120 mins by gamma counting; type: ADME, organism-based, Neoplasm, CCRF S-180; conditions: in vivo, 2 h
[42] = system: Nucleic Acid; assay: Ratio of drug level in tumor to brain in mouse S180 cells xenografted Kunming mouse at 370 kBq/0.1 mL, iv after 60 mins by gamma counting; type: ADME, organism-based, CCRF S-180; conditions: in vivo, 1 h
[43] = system: Brain; assay: Biodistribution in mouse S180 cells xenografted Kunming mouse brain at 370 kBq/0.1 mL, iv after 15 mins by gamma counting; type: ADME, organism-based, CCRF S-180; conditions: in vivo, 0.25 h

Cc1cc(NCC[18F])n2ncc(C#N)c2n1
Drug uptake [1]: 2.59 % ID/g | Ratio [2]: 1.81 | Drug uptake [3]: 2.95 % ID/g | Drug uptake [4]: 2.78 % ID/g | Drug uptake [5]: 2.95 % ID/g | Drug uptake [6]: 4.83 % ID/g | Drug uptake [7]: 3.42 % ID/g | Drug uptake [8]: 4.66 % ID/g | Ratio [9]: 0.47 | Drug uptake [10]: 3.17 % ID/g | Ratio [11]: 0.59 | logP [12]: 0.68 | Drug uptake [13]: 3.79 % ID/g | Drug uptake [14]: 3.17 % ID/g | Drug uptake [15]: 2.31 % ID/g | Drug uptake [16]: 4.37 % ID/g | Ratio [17]: 0.81 | Drug uptake [18]: 5.53 % ID/g | Drug uptake [19]: 2.47 % ID/g | Drug uptake [20]: 3.43 % ID/g | Ratio [21]: 1.61 | Drug uptake [22]: 3.84 % ID/g | Ratio [23]: 0.98 | Drug uptake [24]: 2.54 % ID/g | Drug uptake [25]: 4.02 % ID/g | Drug uptake [26]: 4.49 % ID/g | Drug uptake [27]: 2.45 % ID/g | Drug uptake [28]: 2.82 % ID/g | Drug uptake [29]: 1.88 % ID/g | Ratio [30]: 1.09 | Drug uptake [31]: 2.64 % ID/g | fold change (FC) [32]: 2 | Stability [33]: Stable | Drug uptake [34]: 1.92 % ID/g | Drug uptake [35]: 5.51 % ID/g | Ratio [36]: 1.62 | Drug uptake [37]: 5.04 % ID/g | Drug uptake [38]: 3.46 % ID/g | Ratio [39]: 0.39 | Drug uptake [40]: 1.84 % ID/g | Drug uptake [41]: 2.88 % ID/g | Ratio [42]: 1.53 | Drug uptake [43]: 2.7 % ID/g
